Active and inactive are the calls of the source. The rule behind the calls is not given here.

We go through three compounds from ChEMBL document CHEMBL3860091, “Synthesis and activity of newly designed aroxyalkyl or aroxyethoxyethyl derivatives of piperazine on the cardiovascular and the central nervous systems” (Bioorg Med Chem Lett, 2016).

In data set [1] the test system is Rattus norvegicus. Description: Hypotensive activity in normotensive anesthetized Wistar rat assessed as systolic blood pressure at 0.5 mg/kg, iv measured 60 mins post dose (reference value: 107.4 to 148.3 mmHg). The data set is classed as functional.
Data set [2] relates to Rattus norvegicus. Kind of data set: Hypotensive activity in normotensive anesthetized Wistar rat assessed as systolic blood pressure at 0.5 mg/kg, iv measured 10 mins post dose (reference value: 107.4 to 148.3 mmHg). The data set is classed as functional.
Data set [3] is described as follows: Antidepressant-like activity in albino Swiss (CD-1) mouse assessed as immobility time at 5 mg/kg, ip administered 30 mins prior to test measured for last 4 mins of 6 mins observation by forced swim test (reference value: 178.3 +/- 12.3 sec). The data set is classed as functional, organism-based.
In data set [4] the test system is Rattus norvegicus. Description: Hypotensive activity in normotensive anesthetized Wistar rat assessed as systolic blood pressure at 0.5 mg/kg, iv measured 30 mins post dose (reference value: 107.4 to 148.3 mmHg). The data set is classed as functional.
The subject of another data set is Mus musculus. Description: Toxicity in albino Swiss (CD-1) mouse assessed as effect on spontaneous locomotor activity by measuring number of crossings at 10 mg/kg, ip administered 30 mins prior to test measured for last 4 mins of 6 mins observation (reference value: 191.5 to 225.4). The data set is classed as organism-based. The following applies: in vivo.
A short description of data set [5]: Antidepressant-like activity in albino Swiss (CD-1) mouse assessed as immobility time at 2.5 mg/kg, ip administered 30 mins prior to test measured for last 4 mins of 6 mins observation by forced swim test (reference value: 178.3 +/- 12.3 sec). The data set is classed as functional, organism-based.
Data set [6] concerns Rattus norvegicus. Description: Hypotensive activity in normotensive anesthetized Wistar rat assessed as systolic blood pressure at 0.1 mg/kg, iv measured 60 mins post dose (reference value: 107.4 to 148.3 mmHg). The data set is classed as functional.
The subject of data set [7] is Rattus norvegicus. Kind of data set: Inhibition of adrenaline-induced pressor response in normotensive Wistar rat at 1 mg/kg, iv measured 5 mins post dose. The data set is classed as functional, organism-based.
The test system of data set [8] is Rattus norvegicus. Kind of data set: Hypotensive activity in normotensive anesthetized Wistar rat assessed as diastolic blood pressure at 0.1 mg/kg, iv measured 20 mins post dose (reference value: 81.6 to 115.2 mmHg). The data set is classed as functional.
The subject of data set [9] is Rattus norvegicus. Kind of data set: Hypotensive activity in normotensive anesthetized Wistar rat assessed as systolic blood pressure at 0.1 mg/kg, iv measured 20 mins post dose (reference value: 107.4 to 148.3 mmHg). The data set is classed as functional.
Data set [10] relates to Rattus norvegicus. Kind of data set: Inhibition of methoxamine-induced pressor response in normotensive Wistar rat at 1 mg/kg, iv measured 5 mins post dose. The data set is classed as functional, organism-based.
The test system of data set [11] is Rattus norvegicus. Description: Hypotensive activity in normotensive anesthetized Wistar rat assessed as diastolic blood pressure at 0.1 mg/kg, iv measured 60 mins post dose (reference value: 81.6 to 115.2 mmHg). The data set is classed as functional.
The test system of data set [12] is Rattus norvegicus. Description: Hypotensive activity in normotensive anesthetized Wistar rat assessed as systolic blood pressure at 0.1 mg/kg, iv measured 30 mins post dose (reference value: 107.4 to 148.3 mmHg). The data set is classed as functional.
In data set [13] the test system is Rattus norvegicus. Description: Hypotensive activity in normotensive anesthetized Wistar rat assessed as diastolic blood pressure at 0.1 mg/kg, iv measured 5 mins post dose (reference value: 81.6 to 115.2 mmHg). The data set is classed as functional.
In data set [14] the test system is Rattus norvegicus. Kind of data set: Hypotensive activity in normotensive anesthetized Wistar rat assessed as diastolic blood pressure at 0.1 mg/kg, iv measured 10 mins post dose (reference value: 81.6 to 115.2 mmHg). The data set is classed as functional.
Data set [15] has as its system Rattus norvegicus. Description: Hypotensive activity in normotensive anesthetized Wistar rat assessed as systolic blood pressure at 0.1 mg/kg, iv measured 5 mins post dose (reference value: 107.4 to 148.3 mmHg). The data set is classed as functional.
Data set [16] concerns Rattus norvegicus. Description: Hypotensive activity in normotensive anesthetized Wistar rat assessed as systolic blood pressure at 0.1 mg/kg, iv measured 10 mins post dose (reference value: 107.4 to 148.3 mmHg). The data set is classed as functional.
Data set [17] deals with Rattus norvegicus. Description: Hypotensive activity in normotensive anesthetized Wistar rat assessed as diastolic blood pressure at 0.1 mg/kg, iv measured 30 mins post dose (reference value: 81.6 to 115.2 mmHg). The data set is classed as functional.

Consider `Cc1cccc(Cl)c1OCCCCN1CCN(c2ccccc2)CC1.Cl.Cl`, for which the Activity came to 130.8 mmHg in the data set with Rattus norvegicus [1], 135.3 mmHg in the data set with Rattus norvegicus [2] and 131.5 mmHg with Rattus norvegicus [4]. In addition, in data set [3], the TIME was found to be 0.0416 h.

Consider `COc1ccccc1N1CCN(CCOCCOc2cccc(C)c2C)CC1.Cl.Cl`, for which the Activity in the data set on Mus musculus is listed as 190. The values for the TIME in data set [3] and in data set [5] were 0.0339 h and 0.0447 h, respectively.

Take `COc1ccccc1N1CCN(CCCCOc2c(C)cccc2C)CC1.Cl`: the Activity with Rattus norvegicus [6] stood at 127.7 mmHg; with Rattus norvegicus [1] it was 115.3 mmHg; in the data set on Rattus norvegicus [8], 104 mmHg; in the data set on Rattus norvegicus [2], 122.7 mmHg; in the data set on Rattus norvegicus [9], 131.7 mmHg; in the data set with Rattus norvegicus [11], 101.3 mmHg. The Activity in the data set on Rattus norvegicus [12] was 130.3 mmHg; in the data set with Rattus norvegicus [13], 112.7 mmHg; in the data set with Rattus norvegicus [14], 112.7 mmHg; with Rattus norvegicus [15], 142.7 mmHg; in the data set with Rattus norvegicus [16] it was 138.3 mmHg; in the data set with Rattus norvegicus [17], 103 mmHg. The Activity in the data set on Rattus norvegicus [4] stood at 119.3 mmHg. Further, the inhibition result with Rattus norvegicus [7] and in the data set with Rattus norvegicus [10] was “Active” each time.
